Reference: patent US8119844B2, “Alcohol production process” (LanzaTech New Zealand Limited, priority 2008, dated 2012)
Like-named read-outs stand apart in the source and are kept apart here.

What was measured:
Clostridium pasteurianum [1] = assay: Effect of methanol on the fermentation of glycerol to butanol (serum bottle); assay type: cell-based; conditions: for Acetate Consumption / Final Butanol / Final Butyrate / Glycerol Consumption: 30 g/l glycerol, 2 g/l acetate, after 36 hours of fermentation
Excerpt: In this experiment, the effect of methanol on the conversion of commercial glycerol to butanol was studied. […] In addition, acetate and glycerol consumption decreased.

Clostridium pasteurianum [2] = conditions: for Acetate Consumption / Acetate Consumption (percent of starting acetate) / Final Acetate / Final Butanol / Final Butyrate / Glycerol Consumption: 30 g/l glycerol, after 3 days of fermentation
Experimental: LM31 media at pH 7.4 was prepared as follows. All ingredients with the exception of Cysteine-HCl were mixed in 400 ml distilled water. This solution was made anaerobic by heating to boiling and allowing it to cool to room temperature under a constant flow of N2 gas. Once cool, the Cysteine-HCl was added and the pH of the solution adjusted to 7.4 before making the volume up to 1000 ml; anaerobicity was maintained throughout the experiments.
Bacteria: Clostridium pasteurianum were obtained from the German Resource Centre for Biological Material (DSMZ). The accession number given to the bacteria is DSMZ 525.
Incubation was performed in 234 ml sealed serum bottles each containing 50 ml of the media LM31. The 184 ml headspace of each serum bottle was first flushed three times with N2 gas, before being evacuated and filed to an overpressure of 5 psig. Each bottle was inoculated with 1 ml of a Clostridium pasteurianum culture. A shaking incubator was used and the reaction temperature was maintained at 37° C.
Media samples were taken at intervals over a 3 day period. Each time the media was sampled care was taken to ensure that no gas was allowed to enter into or escape from the serum bottle.
All samples were used to establish the absorbancy at 600 nm (spectrophotometer) and the level of substrates and products (GC or HPLC). HPLC was routinely used to quantify the level of glycerol, methanol, acetate, and ethanol. When n-butyric acid and butanol were present, GC was used in combination with HPLC to quantify the levels of all substrates and products (glycerol, acids and alcohols).
The aim was to test the effect of initial acetate concentration on glycerol fermentation by Clostridium pasteurianum to produce butanol.

Clostridium pasteurianum [3] = assay: Comparison of fermentation of commercial glycerol and glycerol from biodiesel waste for butanol production; assay type: cell-based; conditions: 30 g/l commercial glycerol, 2 g/l acetate, after 36 hours of fermentation
Experimental: Thirty grams biodiesel waste was dissolved in water up to 100 ml and stirred until the solution was homogenous. While stirring, 10% Hydrochloric acid solution was added until pH was below 3.0, so total coagulation of free fatty acid would occur. In order to improve the phase separation, the sample was centrifuged for 1 minute at 4,000 g. At this stage 3 phases could be seen: the top layer appeared oily and contained mostly FAME (Fatty acid methyl ester); the middle phase contained mostly coagulated free fatty acids; and, the bottom phase (aqueous phase) was clear and contained mostly water, glycerol and methanol. The aqueous phase was withdrawn carefully, filtered on a 0.2 μm filter and pH was then raised to pH 7.0 by addition of Sodium hydroxide. At this stage, methanol was evaporated by heating the solution under stirring and vacuum maintained with a water-jet. Finally water can be added in order to dilute the glycerol solution.
The aim of this experiment was to test the glycerol obtained from biodiesel waste, in a fermentation with Clostridium pasteurianum to produce butanol, in the presence of 2 g/l acetate initial concentration. The conversion of commercial glycerol (first row) was compared with glycerol obtained from biodiesel waste containing methanol (second row) or where methanol was evaporated (last row). […] Levels of butanol and biomass were the highest for bacteria growing on glycerol obtained from biodiesel, where methanol was evaporated. Acetate (50%) was also consumed.

## CO [Methanol]
Clostridium pasteurianum [1]; starting methanol 5.6 g/l
  Acetate Consumption: 0.8 g/L
  Final Butanol: 2.4 g/L
  Final Butyrate: 0.8 g/L
  Glycerol Consumption: 14 g/L
Clostridium pasteurianum [1]; starting methanol 11.2 g/l
  Acetate Consumption: 0.8 g/L
  Final Butanol: 2.0 g/L
  Final Butyrate: 0.6 g/L
  Glycerol Consumption: 13 g/L
Clostridium pasteurianum [1]; starting methanol 16.3 g/l
  Acetate Consumption: 0.6 g/L
  Final Butanol: 1.1 g/L
  Final Butyrate: 0.6 g/L
  Glycerol Consumption: 11 g/L
Clostridium pasteurianum [1]; increasing amounts of methanol, commercial glycerol
  effect on the bacteria and butanol production: increasing inhibitory effect

## CC(=O)O [Acetate, Acetic acid, glacial, 99.8%]
Clostridium pasteurianum [2]; starting acetate 1.4 g/l
  Acetate Consumption: 0.4 g/L
  Acetate Consumption (percent of starting acetate): 28%
  Final Acetate: 1.0 g/L
  Final Butanol: 3.0 g/L
  Final Butyrate: 0.5 g/L
  Glycerol Consumption: 12 g/L
Clostridium pasteurianum [2]; starting acetate 2.2 g/l
  Acetate Consumption: 1.0 g/L
  Acetate Consumption (percent of starting acetate): 45%
  Final Acetate: 1.2 g/L
  Final Butanol: 3.5 g/L
  Final Butyrate: 0.7 g/L
  Glycerol Consumption: 13 g/L
Clostridium pasteurianum [2]; starting acetate 3.5 g/l
  Acetate Consumption: 1.6 g/L
  Acetate Consumption (percent of starting acetate): 45%
  Final Acetate: 1.9 g/L
  Final Butanol: 3.1 g/L
  Final Butyrate: 1.1 g/L
  Glycerol Consumption: 12 g/L
Clostridium pasteurianum [2]; increasing amounts of acetate added at the start of the fermentation
  acetate consumed in the course of the reaction: up to 45%

## OCC(O)CO [commercial glycerol, glycerol]
Clostridium pasteurianum [3]
  Acetate Consumption: 1.0 g/L
  Acetate Consumption (percent): 50%
  Final Butanol: 2.9 g/L
  Final Butyrate: 0.7 g/L
  Glycerol Consumption: 15 g/L
